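96-well plates; 48 h exposure; 5 concentrations. Endpoints by linear interpolation between flanking doses. Not reached: highest tested concentration assigned. GI50 = concentration required for 50% inhibition of growth. TGI is the concentration that stops growth completely.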
Tests used:
Experiment in all cases: growth of human tumour cells (NCI), 48 h
[1] = test system: SW-620 colon
[2] = test system: MOLT-4 leukemia
[3] = test system: ACHN renal
[4] = test system: RPMI-8226 leukemia
[5] = test system: UO-31 renal
[6] = test system: DU-145 prostate
[7] = test system: HCC-2998 colon
[8] = test system: CCRF-CEM leukemia
[9] = test system: LOX IMVI melanoma
[10] = test system: HS 578T breast

Structure (SMILES)	GI50 [1] [µM]	TGI [1] [µM]	GI50 [2] [µM]	TGI [2] [µM]	GI50 [3] [µM]	TGI [3] [µM]	GI50 [4] [µM]	TGI [4] [µM]	GI50 [5] [µM]	TGI [5] [µM]	GI50 [6] [µM]	TGI [6] [µM]	GI50 [7] [µM]	TGI [7] [µM]	GI50 [8] [µM]	TGI [8] [µM]	GI50 [9] [µM]	TGI [9] [µM]	GI50 [10] [µM]	TGI [10] [µM]
CCN(CC)CCCC(C)Nc1cnc(C(=O)Nc2ccc(Cl)c3cccnc23)cn1 (centres undefined)	2.09	4.74	1.33	3.3	1.73	3.31	1.74	3.92	1.48	2.9	4.12	15.8	1.5	3.08	0.484	2.27	1.78	3.3	3.06	13
CCOc1cccc(/C=N/NC(=O)c2ccc(Nc3ccnc(C(F)(F)F)c3)cc2)c1O	2.01	> 100	0.244		0.728	> 79.1	0.359	20.6	0.781	> 25.7	2.46	> 100	1.49	> 20.4	0.332	8.36	0.6	24.5	6.31	> 100
O=c1c2cccc(Cl)c2sc2c(NCCCNCCO)nc3ccccc3c12	1.41	2.95	2.12	5.19	1.44	2.8	2.1	5.45	1.02	3.95	1.98	4.85	1.62	3.02	2.34	8.39	1.41	2.77	2.95	14.8
Cc1nn(-c2nc3ccccc3s2)c(C)c1Oc1ccccc1O	4.79	17.6	2.56	12.5	10.1	22.8	8.13	34.8	4.44	18.6	7.17	20.1	5.73	18.9	5.14	47.8	2.87	16.9	10.3	25.2
O=C(Nc1ccccc1O)c1cccc(NC2=C(Cl)C(=O)N(Cc3ccccc3)C2=O)c1	2.12	5.06	0.712	4.01	4.73	15.7	0.778	3.4	8.53	25.1	7.07	20.6	3.33	13.4	< 0.0179	3.85	1.62	3.6	5.28	17.8
COc1cc2nc(-c3cnc(N(C)C)nc3)nc(NC3CCN(Cc4ccccc4)CC3)c2cc1OC	0.442	2	2.28	6.36	0.927	2.17	1.22	3.67	1.49	3.05	1.57	3.05	1.79	3.25	0.707	3.6	1.52	3.2	1.71	3.99
C[n+]1c(/C=C\c2ccc(Cl)cc2)ccc2ccccc21	4.1	63.4	> 100	> 100	81.6	> 100	14.4	> 100	72.5	> 100	89.8	> 100	31.6	> 100	32.4	> 100	37.4	> 100	27.4	> 100
Oc1ccc(-c2nnc3sc(-c4ccc(F)c(Oc5ccccc5)c4)nn23)cc1	83	> 100	22.2	> 100	22.7	78.3	28.4	> 100	5.62	> 100	35	> 100	73.2	> 100	> 100	> 100	36.7	> 100	19.8	51.4
CCOc1c(Br)cc(C2C(C(=O)OC)=CN(C)C=C2C(=O)OC)cc1OC	38.6	> 100	38.9	> 100	77.6	> 100	45.5	> 100	28.8	> 100	> 100	> 100	> 100	> 100	40.1	> 100	85.1	> 100	50.4	> 100
CC[C@H](C)[C@H]1NC(=O)[C@@H](N[C@](C)(O)[C@@H](N)CC(C)C)[C@@H](C)OC(=O)[C@H](Cc2ccc(OC)cc2)N(C)C(=O)[C@@H]2CCCN2C(=O)[C@H](CC(C)C)NC(=O)[C@@H](C)C(=O)[C@H](C(C)C)OC(=O)C[C@@H]1O	0.0167	6.06	0.0133	0.575	0.0428	2.67	0.0347	0.177	0.343	3.31	0.00903	0.509	0.0197	0.361	0.0113	0.232	0.012	0.209	0.0164	0.467
COC(=O)Nc1nc2ccc(Oc3ccc(NC(=O)Nc4cccc(C(=O)O)c4)cc3)cc2[nH]1	7.43	> 25	9.99	> 25	16.9	> 25	8.03	> 25	15.7	> 25	8.07	> 25	8.44	> 25	7.02	> 25	> 14.6	> 25	4.28	24.5
Cn1cc(C2=C(c3cccc4ccccc34)C(=O)NC2=O)c2ccccc21	9.45	> 25	7.9	> 22.5	7.48	> 25	8.18	> 19.9	7.38	> 25	12.3	> 25	12.2	> 25	8.3	24.5	6.96	> 25	6.69	> 24

Source: PubChem BioAssay (NCI)
